Data from ChEMBL document CHEMBL1201862, “PubChem BioAssay data set” (2004).
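In this assay, cells in 96-well plates receive the compound at five concentrations for 48 hours. Endpoints are linearly interpolated between the surrounding concentrations. GI50 is the concentration that inhibits growth by half.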 The source made the active and inactive calls. No stated cut-off is given here; in the data, active = GI50 up to about 1.1 µM and inactive = higher.

Experiments:
Assay in all cases: NCI anticancer screen, dose series, 48 h
[1] = system: SN12C
[2] = system: SR
[3] = system: NCI-H460
[4] = system: KM-20L2
[5] = system: IGROV-1
[6] = system: TK-10
[7] = system: SNB-75
[8] = system: HOP-62
[9] = system: NCI-H226
[10] = system: 786-0
[11] = system: SK-MEL-28
[12] = system: M14
[13] = system: MOLT-4
[14] = system: HOP-92
[15] = system: UACC-62
[16] = system: NCI-H23
[17] = system: CAKI-1
[18] = system: Malme-3M
[19] = system: SF-268
[20] = system: EKVX
[21] = system: M19-MEL
[22] = system: RXF 393
[23] = system: DMS-114
[24] = system: HCT-116
[25] = system: SK-MEL-2
[26] = system: COLO 205
[27] = system: HL-60
[28] = system: U-251
[29] = system: RPMI-8226
[30] = system: SNB-19
[31] = system: UACC-257
[32] = system: OVCAR-5
[33] = system: K562
[34] = system: SK-MEL-5
[35] = system: LXFL 529
[36] = system: NCI-H522
[37] = system: A549
[38] = system: CCRF-CEM
[39] = system: SK-OV-3
[40] = system: ACHN
[41] = system: UO-31
[42] = system: OVCAR-3
[43] = system: SF-539
[44] = system: HCC 2998
[45] = system: LOX IMVI
[46] = system: KM12
[47] = system: SW-620
[48] = system: DLD-1
[49] = system: HT-29
[50] = system: DMS-273
[51] = system: XF498
[52] = system: HCT-15
[53] = system: OVCAR-8
[54] = system: OVCAR-4
[55] = system: SF-295
[56] = system: HOP-18

O=c1nc2n(c3nsnc13)CCO2
GI50 [1]: > 100 µM (inactive) | GI50 [2]: > 100 µM (inactive) | GI50 [3]: > 100 µM (inactive) | GI50 [4]: > 100 µM (inactive) | GI50 [5]: > 100 µM (inactive) | GI50 [6]: > 100 µM (inactive) | GI50 [7]: > 100 µM (inactive) | GI50 [8]: > 100 µM (inactive) | GI50 [9]: > 100 µM (inactive) | GI50 [10]: > 100 µM (inactive) | GI50 [11]: > 100 µM (inactive) | GI50 [12]: > 100 µM (inactive) | GI50 [13]: > 100 µM (inactive) | GI50 [14]: > 100 µM (inactive) | GI50 [15]: > 100 µM (inactive) | GI50 [16]: > 100 µM (inactive) | GI50 [17]: > 100 µM (inactive) | GI50 [18]: > 100 µM (inactive) | GI50 [19]: > 100 µM (inactive) | GI50 [20]: > 100 µM (inactive) | GI50 [21]: > 100 µM (inactive) | GI50 [22]: > 100 µM (inactive) | GI50 [23]: 36.6 µM (inactive) | GI50 [24]: 29.8 µM (inactive) | GI50 [25]: > 100 µM (inactive) | GI50 [26]: > 100 µM (inactive) | GI50 [27]: > 100 µM (inactive) | GI50 [28]: > 100 µM (inactive) | GI50 [29]: > 100 µM (inactive) | GI50 [30]: > 100 µM (inactive) | GI50 [31]: > 100 µM (inactive) | GI50 [32]: > 100 µM (inactive) | GI50 [33]: > 100 µM (inactive) | GI50 [34]: > 100 µM (inactive) | GI50 [35]: > 100 µM (inactive) | GI50 [36]: > 100 µM (inactive) | GI50 [37]: > 100 µM (inactive) | GI50 [38]: > 100 µM (inactive) | GI50 [39]: > 100 µM (inactive) | GI50 [40]: > 100 µM (inactive) | GI50 [41]: > 100 µM (inactive) | GI50 [42]: > 100 µM (inactive) | GI50 [43]: > 100 µM (inactive) | GI50 [44]: > 100 µM (inactive) | GI50 [45]: > 100 µM (inactive) | GI50 [46]: > 100 µM (inactive) | GI50 [47]: > 100 µM (inactive) | GI50 [48]: > 100 µM (inactive) | GI50 [49]: > 100 µM (inactive) | GI50 [50]: > 100 µM (inactive) | GI50 [51]: > 100 µM (inactive) | GI50 [52]: > 100 µM | GI50 [53]: > 100 µM (inactive)

CC[n+]1c(-c2ccccc2)c2cc(N)ccc2c2ccc(N)cc21
GI50 [1]: 2.51 µM (inactive) | GI50 [3]: 3.3 µM (inactive) | GI50 [4]: 3.91 µM (inactive) | GI50 [5]: 1.42 µM (inactive) | GI50 [13]: 1.64 µM (inactive) | GI50 [54]: 6.68 µM (inactive) | GI50 [15]: 1.52 µM (inactive) | GI50 [16]: 1.31 µM (inactive) | GI50 [17]: 11.8 µM (inactive) | GI50 [18]: 2.24 µM (inactive) | GI50 [21]: 1.88 µM (inactive) | GI50 [23]: 1.29 µM (inactive) | GI50 [24]: 2.79 µM (inactive) | GI50 [26]: 2.12 µM (inactive) | GI50 [55]: 3 µM (inactive) | GI50 [27]: 4.3 µM (inactive) | GI50 [31]: 2.65 µM (inactive) | GI50 [32]: 29.6 µM (inactive) | GI50 [33]: 2.35 µM (inactive) | GI50 [35]: 0.668 µM (active) | GI50 [37]: 9.57 µM (inactive) | GI50 [40]: 22.1 µM (inactive) | GI50 [42]: 3.06 µM (inactive) | GI50 [43]: 1.48 µM (inactive) | GI50 [44]: 2.67 µM (inactive) | GI50 [46]: 2.95 µM (inactive) | GI50 [47]: 2.3 µM (inactive) | GI50 [50]: 0.481 µM (active) | GI50 [56]: 3.59 µM (inactive)

COc1cc(C2c3cc4c(cc3[C@@H](NCCN(C)C)C3COC(=O)[C@H]23)OCO4)cc(OC)c1O (some centres not stated)
GI50 [3]: < 0.01 µM (active) | GI50 [6]: 1.69 µM (inactive) | GI50 [7]: 0.13 µM (active) | GI50 [9]: 0.0156 µM (active) | GI50 [11]: 0.309 µM (active) | GI50 [12]: 0.255 µM (active) | GI50 [14]: 0.0303 µM (active) | GI50 [54]: 3.09 µM (inactive) | GI50 [18]: 0.36 µM (active) | GI50 [21]: 0.91 µM (active) | GI50 [27]: 0.0127 µM (active) | GI50 [28]: 0.0687 µM (active) | GI50 [29]: 0.29 µM (active) | GI50 [30]: 0.598 µM (active) | GI50 [33]: 0.407 µM (active) | GI50 [34]: 0.133 µM (active) | GI50 [35]: 1.82 µM (inactive) | GI50 [37]: 0.0207 µM (active) | GI50 [41]: 0.284 µM (active) | GI50 [42]: 1.34 µM (inactive) | GI50 [43]: 0.0585 µM (active) | GI50 [46]: 0.931 µM (active) | GI50 [47]: 0.296 µM (active) | GI50 [48]: 1.46 µM (inactive) | GI50 [51]: 0.2 µM (active)
